Results published in ChEMBL document CHEMBL1201862, “PubChem BioAssay data set” (2004).
Active and inactive are the calls of the source.

What was measured:
[1] = target: T1, Aryl hydrocarbon receptor (Homo sapiens, UniProt P35869); details: Potency;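 further: confirmatory quantitative high-throughput screen measuring activation of the AhR signaling pathway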
T1 sequence (P35869 whole entry): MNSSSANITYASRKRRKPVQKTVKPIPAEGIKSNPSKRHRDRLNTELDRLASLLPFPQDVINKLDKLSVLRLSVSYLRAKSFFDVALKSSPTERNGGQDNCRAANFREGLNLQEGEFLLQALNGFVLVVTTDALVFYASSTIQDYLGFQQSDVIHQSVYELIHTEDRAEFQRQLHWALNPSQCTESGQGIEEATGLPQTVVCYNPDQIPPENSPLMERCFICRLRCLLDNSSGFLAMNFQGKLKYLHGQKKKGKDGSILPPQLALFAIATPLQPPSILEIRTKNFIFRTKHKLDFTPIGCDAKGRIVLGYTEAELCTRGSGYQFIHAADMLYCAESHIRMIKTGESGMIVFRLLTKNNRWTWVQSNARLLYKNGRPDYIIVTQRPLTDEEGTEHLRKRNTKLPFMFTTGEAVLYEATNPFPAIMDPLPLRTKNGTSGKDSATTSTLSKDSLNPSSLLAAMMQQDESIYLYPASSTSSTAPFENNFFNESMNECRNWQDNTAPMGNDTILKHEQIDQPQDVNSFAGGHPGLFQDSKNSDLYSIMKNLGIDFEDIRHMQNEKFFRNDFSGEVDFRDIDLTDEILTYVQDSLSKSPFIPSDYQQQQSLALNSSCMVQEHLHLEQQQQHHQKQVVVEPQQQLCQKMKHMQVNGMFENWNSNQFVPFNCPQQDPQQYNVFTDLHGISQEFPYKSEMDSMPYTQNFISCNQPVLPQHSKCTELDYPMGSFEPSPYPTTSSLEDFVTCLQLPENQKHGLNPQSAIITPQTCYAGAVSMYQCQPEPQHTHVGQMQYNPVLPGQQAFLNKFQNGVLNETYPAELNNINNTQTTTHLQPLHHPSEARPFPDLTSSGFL

[2] = AlphaScreen signal interference compounds, dose response, artefact control for ARNT-TACC3 interaction inhibitor project, biochemical, luminescence, cherry-pick (AID 651705); format: functional;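 further: AlphaScreen bead proximity signal that flags compounds interfering with the detection technology; potency reflects signal decrease which marks the compound as an assay artifact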
[3] = target: Glucose-6-phosphate 1-dehydrogenase (Homo sapiens, UniProt P11413); assay: human G6PD enzyme inhibitors, dose response, selectivity assay for P. falciparum G6PD inhibitor project, biochemical, fluorescence (AID 504792); format: functional
Sequence of Glucose-6-phosphate 1-dehydrogenase (P11413 whole entry): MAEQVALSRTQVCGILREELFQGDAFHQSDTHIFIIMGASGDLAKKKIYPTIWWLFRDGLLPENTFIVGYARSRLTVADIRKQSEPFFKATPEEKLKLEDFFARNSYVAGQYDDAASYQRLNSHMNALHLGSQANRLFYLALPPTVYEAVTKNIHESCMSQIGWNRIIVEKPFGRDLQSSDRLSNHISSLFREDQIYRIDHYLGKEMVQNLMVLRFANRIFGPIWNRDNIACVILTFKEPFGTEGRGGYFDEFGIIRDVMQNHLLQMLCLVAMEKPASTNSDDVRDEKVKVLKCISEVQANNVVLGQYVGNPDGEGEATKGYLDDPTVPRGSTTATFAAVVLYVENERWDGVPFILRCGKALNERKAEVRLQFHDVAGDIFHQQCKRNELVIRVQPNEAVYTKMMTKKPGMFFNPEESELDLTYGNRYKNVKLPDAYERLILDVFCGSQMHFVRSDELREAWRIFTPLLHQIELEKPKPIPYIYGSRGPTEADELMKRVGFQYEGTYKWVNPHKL

[4] = target: Mitochondrial peptide methionine sulfoxide reductase (Bos taurus, UniProt P54149); assay: Absorbance-based biochemical high throughput dose response assay for activators of Methionine sulfoxide reductase A (MsrA).; format: functional
CHO = assay: cytotoxicity in TLR9-MyD88 CHO cells, dose response, cytotoxicity control for TLR9-MyD88 binding inhibitor project, cell-based, luminescence (AID 588339); format: functional, hamster; details: Cricetulus griseus;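 further: CHO cells stably coexpressing TLR9 and MyD88 fusions from primary screen; compound exposure lasted 48 hours before viability readout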
Beta Lactamase = Beta Lactamase (Pseudomonas aeruginosa, UniProt Q932Y6); assay: beta-lactamase reporter inhibitor potency, dose response, artefact control for TLR9-MyD88 binding inhibitor project, BLA reporter cells, FRET fluorescence (AID 588341); format: cell-based;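 further: cell based assay in CHO-K1 cells stably expressing beta-lactamase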
Sequence of Beta Lactamase (Q932Y6 whole entry): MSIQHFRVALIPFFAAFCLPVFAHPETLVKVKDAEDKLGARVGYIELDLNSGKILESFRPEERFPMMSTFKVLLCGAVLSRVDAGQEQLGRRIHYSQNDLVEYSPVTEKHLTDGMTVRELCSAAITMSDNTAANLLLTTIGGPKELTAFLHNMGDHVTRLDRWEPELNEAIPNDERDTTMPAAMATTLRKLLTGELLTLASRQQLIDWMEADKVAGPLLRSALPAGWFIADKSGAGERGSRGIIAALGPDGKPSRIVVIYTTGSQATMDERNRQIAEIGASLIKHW

Hexokinase = Hexokinase (Trypanosoma brucei, UniProt Q38C41); assay: Confirmation assay for inhibitors of Trypanosoma brucei hexokinase 1-Analogue-first series. [Related pubchem assays (depositor defined):AID1430, AID1632, AID2516, AID2560, AID2579, AID2600, AID449725, AID492951]; format: functional
Interleukin-8 [5] = target: T2, Interleukin-8 (Homo sapiens, UniProt P10145); assay: Dose Response confirmation of uHTS small molecule hits for cystic fibrosis induced NFkb Inhibitors in a PAF-induced IL8 counterscreen.; format: functional; details: read-out: IC50_Mean
T2 sequence (P10145 whole entry): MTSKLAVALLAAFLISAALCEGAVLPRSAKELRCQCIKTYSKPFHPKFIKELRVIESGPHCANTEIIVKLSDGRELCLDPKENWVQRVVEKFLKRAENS

Interleukin-8 [6] = target: T2, Interleukin-8; assay: Dose Response confirmation of uHTS small molecule hits for cystic fibrosis induced NFkb Inhibitors in a TNFa-induced IL8 counterscreen.; format: functional; details: read-out: IC50_Mean
Orexin receptor type 2 [7] = target: T3, Orexin receptor type 2 (Homo sapiens, UniProt O43614); assay: Counterscreen assay for antagonists of the orexin 1 receptor (OX1R; HCRTR1): Homogeneous Time Resolved Fluorescence (HTRF)-based cell-based dose response assay for antagonists of the orexin 2 receptor (OX2R; HCRTR2), run by assay provider.; format: functional
T3 sequence (O43614 whole entry): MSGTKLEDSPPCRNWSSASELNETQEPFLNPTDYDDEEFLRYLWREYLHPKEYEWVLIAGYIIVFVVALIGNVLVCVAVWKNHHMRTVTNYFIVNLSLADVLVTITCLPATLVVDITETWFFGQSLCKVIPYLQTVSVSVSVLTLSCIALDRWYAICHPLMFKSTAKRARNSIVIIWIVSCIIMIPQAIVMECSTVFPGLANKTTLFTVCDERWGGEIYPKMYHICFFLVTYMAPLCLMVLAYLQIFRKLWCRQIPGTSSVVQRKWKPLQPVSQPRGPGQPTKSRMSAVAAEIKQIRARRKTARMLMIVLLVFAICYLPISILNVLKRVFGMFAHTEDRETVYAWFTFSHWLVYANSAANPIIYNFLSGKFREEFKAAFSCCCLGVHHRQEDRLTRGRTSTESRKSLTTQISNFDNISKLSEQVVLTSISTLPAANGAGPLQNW

Orexin receptor type 2 [8] = target: T3, Orexin receptor type 2; assay: Counterscreen assay for antagonists of the orexin 1 receptor (OX1R; HCRTR1): Fluorescence-based cell-based dose response assay for antagonists of the orexin 2 receptor (OX2R; HCRTR2), run by assay provider.; format: functional
[9] = (§1) Counterscreen for antagonists of the orexin 1 receptor (OX1R; HCRTR1): Fluorescence-based cell-based high throughput dose response assay to identify antagonists of the parental CHO cell line. [Related pubchem assays (depositor defined):AID434989, AID435008, AID463079, AID485270, AID492963, AID492964, AID492965, AID493232, AID504699, AID504701]; format: functional
CHO-K1 = assay: as §1, with “Homogeneous time resolved fluorescence (HTRF)-based” for “Fluorescence-based”, “cell-based” for “cell-based high throughput”, “CHO-K1” for “CHO”; format: functional; details: Cricetulus griseus;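 further: potency for inhibition of ATP-stimulated IP1 production as antagonists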
[10] = target: T4, Orexin/Hypocretin receptor type 1 (Homo sapiens, UniProt O43613); assay: Homogeneous Time Resolved Fluorescence (HTRF)-based cell-based high throughput dose response assay for antagonists of the orexin 1 receptor (OX1R; HCRTR1). [Related pubchem assays (depositor defined):AID434989, AID435008, AID463079, AID485270, AID492963, AID492964, AID492965, AID493232, AID504717, AID504718]; format: functional
T4 sequence (O43613 whole entry): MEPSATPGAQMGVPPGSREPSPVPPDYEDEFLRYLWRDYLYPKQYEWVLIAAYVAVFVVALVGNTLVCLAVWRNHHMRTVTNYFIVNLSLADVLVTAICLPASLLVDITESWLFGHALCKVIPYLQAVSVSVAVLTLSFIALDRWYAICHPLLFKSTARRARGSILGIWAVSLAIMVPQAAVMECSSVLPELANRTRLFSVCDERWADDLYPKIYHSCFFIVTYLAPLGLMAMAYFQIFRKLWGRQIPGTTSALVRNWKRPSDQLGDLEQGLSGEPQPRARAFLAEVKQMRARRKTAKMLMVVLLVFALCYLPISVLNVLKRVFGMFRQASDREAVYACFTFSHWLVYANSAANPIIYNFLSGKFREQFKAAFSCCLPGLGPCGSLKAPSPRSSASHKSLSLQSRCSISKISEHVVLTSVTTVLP

[11] = target: T4, Orexin/Hypocretin receptor type 1; assay: Fluorescence-based cell-based high throughput dose response assay for antagonists of the orexin 1 receptor (OX1R; HCRTR1). [Related pubchem assays (depositor defined):AID434989, AID435008, AID463079, AID485270, AID492963, AID492964, AID492965, AID493232, AID504717, AID504718]; format: functional
[12] = target: Potassium voltage-gated channel subfamily KQT member 2 (Rattus norvegicus, UniProt O88943); assay: KCNQ2 potassium channel inhibitors, dose response, cell-based, automated electrophysiology, set II, rat KCNQ2 (AID 588637); format: functional
Sequence of Potassium voltage-gated channel subfamily KQT member 2 (O88943 whole entry): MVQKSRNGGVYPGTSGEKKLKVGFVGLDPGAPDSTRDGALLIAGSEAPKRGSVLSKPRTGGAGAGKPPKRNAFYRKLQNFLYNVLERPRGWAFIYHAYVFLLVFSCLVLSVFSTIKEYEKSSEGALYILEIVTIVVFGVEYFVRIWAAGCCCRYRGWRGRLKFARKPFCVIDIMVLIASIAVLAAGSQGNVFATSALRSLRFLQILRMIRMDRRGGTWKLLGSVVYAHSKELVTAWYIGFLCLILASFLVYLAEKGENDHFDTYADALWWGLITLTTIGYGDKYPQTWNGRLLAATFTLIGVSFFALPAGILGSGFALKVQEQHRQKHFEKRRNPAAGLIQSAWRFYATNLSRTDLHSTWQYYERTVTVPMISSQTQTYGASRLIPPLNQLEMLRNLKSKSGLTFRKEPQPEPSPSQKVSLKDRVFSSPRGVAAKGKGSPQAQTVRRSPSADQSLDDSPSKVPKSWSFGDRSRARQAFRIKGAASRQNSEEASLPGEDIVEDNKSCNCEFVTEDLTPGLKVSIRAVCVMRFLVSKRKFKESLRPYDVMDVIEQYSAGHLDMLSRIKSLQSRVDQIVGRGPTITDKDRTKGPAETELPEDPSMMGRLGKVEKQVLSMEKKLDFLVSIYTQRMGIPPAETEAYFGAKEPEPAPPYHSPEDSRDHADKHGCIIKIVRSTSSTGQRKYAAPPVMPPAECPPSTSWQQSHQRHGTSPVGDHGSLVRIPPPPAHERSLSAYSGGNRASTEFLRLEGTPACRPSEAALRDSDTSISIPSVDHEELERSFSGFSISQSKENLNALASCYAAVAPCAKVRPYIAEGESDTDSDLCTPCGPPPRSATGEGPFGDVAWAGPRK

[13] = target: T5, Probable nicotinate-nucleotide adenylyltransferase (Staphylococcus aureus (strain N315), UniProt P65502); format: functional, Staphylococcus aureus subsp. aureus N315;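 on IC50 Mean: confirmatory dose-response retesting of NadD inhibitor hits first found in an ultra-high-throughput screen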
T5 sequence (P65502 whole entry): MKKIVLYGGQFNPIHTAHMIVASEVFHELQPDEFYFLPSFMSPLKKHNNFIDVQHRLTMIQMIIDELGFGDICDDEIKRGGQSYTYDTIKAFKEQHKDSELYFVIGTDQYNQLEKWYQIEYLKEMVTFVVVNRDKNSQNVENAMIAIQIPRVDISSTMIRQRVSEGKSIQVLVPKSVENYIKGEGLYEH

[14] = target: T5, Probable nicotinate-nucleotide adenylyltransferase; format: functional, Staphylococcus aureus subsp. aureus N315; details: read-out: IC50_Mean
[15] = target: Dual specificity protein kinase CLK4 (Homo sapiens, UniProt Q9HAZ1); format: functional
Sequence of Dual specificity protein kinase CLK4 (Q9HAZ1 whole entry): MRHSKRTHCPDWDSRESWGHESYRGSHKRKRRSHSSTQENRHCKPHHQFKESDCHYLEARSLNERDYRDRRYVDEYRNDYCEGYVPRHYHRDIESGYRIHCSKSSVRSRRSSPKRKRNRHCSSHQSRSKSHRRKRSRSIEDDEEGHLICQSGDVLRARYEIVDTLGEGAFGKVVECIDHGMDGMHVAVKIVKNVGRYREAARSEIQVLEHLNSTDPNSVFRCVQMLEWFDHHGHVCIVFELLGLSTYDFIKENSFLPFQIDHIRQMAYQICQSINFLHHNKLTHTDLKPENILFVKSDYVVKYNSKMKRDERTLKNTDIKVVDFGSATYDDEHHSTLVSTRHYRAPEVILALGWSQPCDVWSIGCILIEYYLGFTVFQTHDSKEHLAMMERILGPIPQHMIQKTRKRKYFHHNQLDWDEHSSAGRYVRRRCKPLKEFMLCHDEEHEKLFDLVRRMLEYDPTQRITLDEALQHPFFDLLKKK

[16] = target: Rho-associated protein kinase 1 (Homo sapiens, UniProt Q13464); format: functional;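 further: measured within a broad kinome-wide panel profiling many kinases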
[17] = target: Cyclin-dependent kinase 7 (Homo sapiens, UniProt P50613); format: functional;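 further: value comes from a kinome-wide kinase profiling panel in which CDK7 is one member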
[18] = target: Cyclin-dependent kinase 9 (Homo sapiens, UniProt P50750); format: functional;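 further: value from the CDK9 entry of a kinome-spanning kinase panel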
Sequence of Cyclin-dependent kinase 9 (P50750 whole entry): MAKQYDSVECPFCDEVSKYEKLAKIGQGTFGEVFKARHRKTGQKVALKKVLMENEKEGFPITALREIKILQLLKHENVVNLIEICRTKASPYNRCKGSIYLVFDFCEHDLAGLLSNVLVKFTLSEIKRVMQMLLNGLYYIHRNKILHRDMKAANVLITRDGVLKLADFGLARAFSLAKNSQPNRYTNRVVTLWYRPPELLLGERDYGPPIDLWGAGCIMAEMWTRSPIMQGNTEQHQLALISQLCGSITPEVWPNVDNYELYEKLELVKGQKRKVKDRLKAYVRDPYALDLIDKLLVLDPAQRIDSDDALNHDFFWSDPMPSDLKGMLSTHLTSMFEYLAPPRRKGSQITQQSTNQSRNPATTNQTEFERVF

[19] = target: Cell division cycle 7-related protein kinase (Homo sapiens, UniProt O00311); format: functional;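 further: value obtained from a kinome-wide kinase panel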
Sequence of Cell division cycle 7-related protein kinase (O00311 whole entry): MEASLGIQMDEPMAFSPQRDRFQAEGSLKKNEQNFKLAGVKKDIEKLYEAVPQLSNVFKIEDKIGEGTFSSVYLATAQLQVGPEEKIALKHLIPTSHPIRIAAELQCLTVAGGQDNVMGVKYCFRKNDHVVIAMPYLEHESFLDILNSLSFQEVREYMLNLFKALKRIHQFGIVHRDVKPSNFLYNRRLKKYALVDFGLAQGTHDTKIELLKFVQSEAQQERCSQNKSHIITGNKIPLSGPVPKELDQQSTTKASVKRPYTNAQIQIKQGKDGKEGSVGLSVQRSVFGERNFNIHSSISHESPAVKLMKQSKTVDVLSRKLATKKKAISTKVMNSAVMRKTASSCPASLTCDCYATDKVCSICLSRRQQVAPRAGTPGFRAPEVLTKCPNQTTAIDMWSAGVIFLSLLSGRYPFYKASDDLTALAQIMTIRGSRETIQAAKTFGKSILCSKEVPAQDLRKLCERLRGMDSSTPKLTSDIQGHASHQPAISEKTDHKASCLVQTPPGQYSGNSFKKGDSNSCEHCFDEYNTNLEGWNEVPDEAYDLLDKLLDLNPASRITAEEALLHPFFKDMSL

[20] = target: Serine/threonine-protein kinase pim-1 (Homo sapiens, UniProt P11309); format: functional
Sequence of Serine/threonine-protein kinase pim-1 (P11309 whole entry, canonical isoform): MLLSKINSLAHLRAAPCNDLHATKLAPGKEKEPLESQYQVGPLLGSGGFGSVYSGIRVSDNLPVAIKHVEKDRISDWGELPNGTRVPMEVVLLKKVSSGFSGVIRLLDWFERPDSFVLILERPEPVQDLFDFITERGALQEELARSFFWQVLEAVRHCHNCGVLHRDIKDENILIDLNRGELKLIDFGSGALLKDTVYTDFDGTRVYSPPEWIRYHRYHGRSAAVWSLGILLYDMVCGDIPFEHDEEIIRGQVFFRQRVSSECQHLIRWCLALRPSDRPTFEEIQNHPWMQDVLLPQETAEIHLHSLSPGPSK

[21] = target: Casein kinase I isoform gamma-1 (Homo sapiens, UniProt Q9HCP0); format: functional;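 further: measured as the CSNK1G1 member of a kinome profiling panel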
Sequence of Casein kinase I isoform gamma-1 (Q9HCP0 whole entry, canonical isoform): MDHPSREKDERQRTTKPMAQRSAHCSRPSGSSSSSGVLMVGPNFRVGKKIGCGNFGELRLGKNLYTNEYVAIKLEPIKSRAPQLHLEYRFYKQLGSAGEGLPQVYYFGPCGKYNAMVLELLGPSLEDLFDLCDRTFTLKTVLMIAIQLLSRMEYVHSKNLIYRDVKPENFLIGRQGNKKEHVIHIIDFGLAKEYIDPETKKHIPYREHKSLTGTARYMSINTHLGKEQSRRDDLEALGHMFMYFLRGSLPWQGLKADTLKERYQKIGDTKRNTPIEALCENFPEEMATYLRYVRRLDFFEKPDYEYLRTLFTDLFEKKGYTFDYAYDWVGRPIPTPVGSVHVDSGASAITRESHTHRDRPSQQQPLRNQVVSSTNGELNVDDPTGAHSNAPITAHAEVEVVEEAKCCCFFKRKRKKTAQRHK

Melanocortin receptor 4 = Melanocortin receptor 4 (Homo sapiens, UniProt P32245); format: functional, cell-based;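 further: Cell-based assay with luminescence read-out, confirmatory dose-response testing for agonist activity of biased ligands at MC4R; human U2OS cells with tagged receptor and beta-arrestin; potency of agonists that increase receptor coupling to beta-arrestin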
Protein Wnt-3a = Protein Wnt-3a (Mus musculus, UniProt P27467); assay: Wnt3a-driven reporter signaling inhibition, dose response, selectivity assay for Gli-SUFU antagonist project, Wnt-LIGHT cells, luminescence (AID 651570); format: functional; details: read-out: IC50_Mean;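 further: Wnt-LIGHT reporter cells stimulated with conditioned medium from Wnt3a-producing cells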
Sequence of Protein Wnt-3a (P27467 whole entry): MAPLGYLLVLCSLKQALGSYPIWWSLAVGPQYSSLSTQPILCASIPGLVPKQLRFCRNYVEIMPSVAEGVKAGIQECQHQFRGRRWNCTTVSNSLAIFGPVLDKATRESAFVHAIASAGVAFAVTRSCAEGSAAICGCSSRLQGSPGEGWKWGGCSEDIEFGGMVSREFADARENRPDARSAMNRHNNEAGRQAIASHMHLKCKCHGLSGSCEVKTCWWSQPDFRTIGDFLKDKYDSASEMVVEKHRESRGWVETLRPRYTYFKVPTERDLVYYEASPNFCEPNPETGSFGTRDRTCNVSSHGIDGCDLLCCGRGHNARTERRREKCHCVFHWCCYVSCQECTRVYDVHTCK

[22] = Shn3 3'UTR reporter inhibitors, dose response, cell-based, Clone20 osteoblasts, firefly luciferase, cherry-picked (AID 624132); format: functional;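 further: firefly luciferase luminescence from reporter carrying the Shn3 3'UTR in osteoblasts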
[23] = HepG2 cell cytotoxicity, dose response, cytotoxicity control for Shn3 inhibitor project, CellTiter-Glo, cherry-picked (AID 624134); format: functional, cell-based
[24] = control 3'UTR Renilla luciferase suppression, dose response, counter-screen for Shn3 inhibitor project, cell-based, Clone20-Shn3RL, cherry-picked (AID 624133); format: functional
[25] = target: Adenosylmethionine-8-amino-7-oxononanoate aminotransferase (Mycobacterium tuberculosis, UniProt P9WQ81); assay: Mycobacterium tuberculosis BioA enzyme inhibitor Measured in Biochemical System Using Plate Reader - 2163-02_Inhibitor_Dose_CherryPick_Activity.; format: functional, Mycobacterium tuberculosis UT205
[26] = target: Ras and Rab interactor 1/Tyrosine-protein kinase ABL1 (Homo sapiens, UniProt P00519+Q13671); format: functional;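 further: biochemical TR-FRET dose-response test measuring inhibition of binding between Rin1 and Abl proteins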
[27] = target: Photoreceptor-specific nuclear receptor (Homo sapiens, UniProt Q9Y5X4); format: functional, cell-based;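 further: CHO-S cells with Gal4-NCOR and VP16-NR2E3 two-hybrid luciferase reporter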
Sequence of Photoreceptor-specific nuclear receptor (Q9Y5X4 whole entry, the tested form may be a part): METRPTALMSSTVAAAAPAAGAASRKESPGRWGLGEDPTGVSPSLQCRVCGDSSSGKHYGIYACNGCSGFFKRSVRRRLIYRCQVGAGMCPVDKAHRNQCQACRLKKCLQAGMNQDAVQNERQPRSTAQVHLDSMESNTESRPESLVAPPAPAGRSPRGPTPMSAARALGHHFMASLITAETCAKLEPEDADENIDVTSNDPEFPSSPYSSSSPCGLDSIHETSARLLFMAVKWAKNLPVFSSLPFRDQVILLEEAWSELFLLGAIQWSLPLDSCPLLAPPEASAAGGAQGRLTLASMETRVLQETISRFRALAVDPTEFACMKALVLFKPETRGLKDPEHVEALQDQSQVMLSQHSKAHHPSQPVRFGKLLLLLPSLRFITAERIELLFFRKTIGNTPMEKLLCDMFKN

Nc1ccc(/N=N/c2ccccc2)cc1
AC50 [1]: 50.1 µM (inconclusive)

Nn1c(SCC(=O)Nc2ccc3c(c2)OCCO3)nnc1-c1ccccn1
AC50 [2]: 107 µM (active)

O=c1c2cc([N+](=O)[O-])ccc2sn1-c1ccccc1
IC50 [3]: 11.3 µM (active)
EC50 [4]: > 104 µM (inactive)
IC50 (CHO): 12.1 µM (inactive)
IC50 (Beta Lactamase): > 49.7 µM (inactive)
IC50 (Hexokinase): > 25 µM (inactive)

COC(=O)N1C(=O)[C@@](c2ccc(OC)cc2)(C(C)C)N1C(=O)OC
IC50 (Interleukin-8 [5]): 2.4 µM (active)
IC50 (Interleukin-8 [6]): 3.22 µM (active)

Cc1c(C(=O)OC(C)C(=O)N(C)Cc2ccccc2)oc2ccccc12 (stereo not given)
IC50 (Orexin receptor type 2 [7]): 5.52 µM (active)
IC50 (Orexin receptor type 2 [8]): 9.6 µM (active)
IC50 [9]: 43.3 µM (inactive)
IC50 (CHO-K1): > 66.2 µM (inactive)
IC50 [10]: 0.717 µM (active)
IC50 [11]: 6.49 µM (active)

O=C(CN1CCCc2ccccc21)NCCc1ccc(Cl)cc1
IC50 [12]: 8.54 µM (active)

O=C1CC(=C2c3ccccc3-c3ccccc32)C(=O)N1CCN1CCN(c2cccc(Cl)c2)CC1
IC50 [13]: 13.5 µM (active)
IC50 [14]: 26.6 µM (active)

Nc1nonc1-n1cc(CO)nn1
Ki [15]: 63.1 µM (active)
Ki [16]: 39.8 µM (active)

CCc1cc(C(=O)OCC(=O)N2CCC(c3ccccc3)=N2)sc1C
IC50 (Orexin receptor type 2 [7]): > 50 µM (inactive)
IC50 (Orexin receptor type 2 [8]): > 88.8 µM (inactive)
IC50 [9]: > 49.8 µM (inactive)
IC50 (CHO-K1): > 66.2 µM (inactive)
IC50 [10]: 2.45 µM (active)
IC50 [11]: 3.47 µM (active)

COCCN(CCOC)c1nc(OC)cc(-c2c[nH]c3ncccc23)n1
Ki [17]: > 2.51 µM (inactive)
Ki [18]: > 2.51 µM (inactive)
Ki [19]: 0.1 µM (active)

O=C1CC(c2ccc(F)cc2)Cc2[nH]c3cc(Cl)ccc3c(=O)c21 (stereo not given)
Ki [20]: 3.98 µM (active)
Ki [15]: 6.31 µM (active)
Ki [21]: 3.98 µM (active)

COc1ccccc1-c1cc(NC(C)=O)c2ncc(-c3ccccc3)n2c1
EC50 (Melanocortin receptor 4): > 89.2 µM (inactive)

Cc1ccc(S(=O)(=O)N2CCN(C(=O)C3CCN(c4ncnc5sc(C)c(C)c45)CC3)CC2)c(C)c1
IC50 (Protein Wnt-3a): 14.7 µM (active)
AC50 [22]: 2.12 µM (active)
AC50 [23]: 46 µM (active)
AC50 [24]: 1.43 µM (active)

C=CCn1c(SCc2c(C(=O)OC)sc(N)c2C(=O)OC)nnc1-c1ccc(Br)cc1
AC50 [25]: 0.233 µM (active)

CCSCCO/C(O)=C1\C(C)=NC2=C(C(=O)CCC2)C1c1coc2ccccc2c1=O (stereo not given)
IC50 [26]: > 73.5 µM (inactive)

Cc1ccc(CN2CC(C(=O)Nc3ncc(C)s3)CC2=O)cc1 (stereo not given)
IC50 [27]: 1.26 µM (active)
